Data: article PMC9645260, “Small-molecule inhibitors of P-Rex guanine-nucleotide exchange factors” (Small GTPases, 2022)
pIC50: −log10 of the molar value. Where two headings read alike, the source gives them in different places.

Target: T1, P-Rex1 DHPH domains (Homo sapiens, UniProt Q8TCU6)
T1 construct: 100 nM EE-P-Rex1 DHPH domains (PREX-in1, compounds 2–10 and 30–128); made in house; host or cells: Sf9 cells (baculovirus)
Assay: Liposome-based GEF activity assay, isolated P-Rex1 DHPH domains
Format: biochemical
Conditions: for remaining activity at 10 µM: 10 µM compound, 100 nM EE-P-Rex1 DHPH domains, 200 nM prenylated EE-Rac1, PREX-in1, compounds 2-10 and 30-128
Protocol: Full-length N-terminally EE-tagged P-Rex1, P-Rex2, the P-Rex1 DH and DHPH domains and the P-Rex2 DH domain were produced in Sf9 cells using baculoviral transduction and were purified using anti-EE beads, as previously described. Briefly, frozen pellets from 500 ml of Sf9 culture infected with P-Rex expressing high-titre baculovirus were resuspended in ice-cold lysis Sf9-cell lysis buffer 2 (1x PBS, 1% Triton X-100, 5 mM EGTA, 1 mM EDTA, 25 mM NaF, 20 mM β-glycerophosphate, 1 mM DTT, 100 µM PMSF, 10 μg/ml each of leupeptin, pepstatin A, aprotinin and antipain) for 5 min and then ultracentrifuged at 118,000 × g for 1 h at 4°C. Supernatants were incubated with pre-washed anti-EE beads for 90 min on ice with end-over-end rotation. Beads were washed 4 times in wash buffer (2x PBS, 0.1% Triton X-100, 1 mM EGTA) and 5 times in elution buffer (1x PBS, 10% glycerol, 1 mM DTT, 1 mM EGTA, 0.01% Na azide), and protein was eluted by incubation with elution buffer containing Ac-EEYMPME peptide as described above. Protein was concentrated in a YM-100 Centricon (Millipore) at 5000 × g at 4°C. Fatty acid-free BSA and glycerol were added to final concentrations of 2 mg/ml and 50%, respectively. Protein concentration and purity were determined by coomassie staining of SDS-PAGE gels. Full-length Tiam1, expressed in and purified from Sf9 cells, was a kind gift from Angeliki Malliri, CRUK Manchester Institute, UK. The ITSN1 DHPH domains and Ect2 DHPH domains, produced in and purified from bacteria, were a kind gift from Kent Rossman, University of North Carolina, Chapel Hill, USA. The DOCK10 DHR2 domain, produced in and purified from bacteria, was a kind gift from Danni Fan, Institute of Cancer Research, London, UK. All small GTPase and GEF proteins were stored in aliquots at −80°C and were snap-frozen in liquid N2 after each use.
Liposome-based GEF activity assays were carried out essentially as described, except that GEFs were incubated with inhibitor compounds prior to the assay. GEFs (full-length P-Rex1, P-Rex2, and Tiam1, P-Rex1 DH and DHPH domains, P-Rex2 DH domain, ITSN1 DHPH domains, ECT2 DHPH domains or DOCK10 DHR2 domain) were diluted in 20 mM HEPES (pH 7.0 at 4°C), 200 mM KCl, 10% ethylene glycerol, 1% betaine, 500 µM EGTA, 0.01% azide. […] The final 10 µl samples contained GTPase, GEF and inhibitor at concentrations as stated, in 20 mM HEPES pH 7.5, 100 mM NaCl, 1 mM MgCl2, 1 mM EGTA, 1 mM DTT, 10 mg/ml fatty acid-free BSA, liposomes consisting of phosphatidylcholine, -serine and -inositol (200 µM each), with or without 10 µM PIP3, 1 µM GTPγS and 80 nM (1 µCi) ^35S-GTPγS. Positive controls contained additionally 2 mM EDTA to induce maximal GTP-loading of the GTPase. Samples were incubated at 30°C for 10 min, and reactions were stopped by the addition of 400 µl ice-cold wash buffer (1x PBS, 1 mM EGTA, 10 mM MgCl2, 1% Triton X-100, 100 µM GTP). Small GTPases were isolated using anti-EE antibody-coupled Sepharose beads or glutathione Sepharose beads, as appropriate, by incubation on ice for 90 min with end-over-end rotation, four washes in ice-cold wash buffer and resuspension of beads in Ultima Gold scintillation fluid (Perkin Elmer). ^35S-GTPγS incorporation was assessed by scintillation counting (Packard 1600TR, Liquid Scintillation Analyser).

T1 sequence (Q8TCU6 49-392 limits assumed): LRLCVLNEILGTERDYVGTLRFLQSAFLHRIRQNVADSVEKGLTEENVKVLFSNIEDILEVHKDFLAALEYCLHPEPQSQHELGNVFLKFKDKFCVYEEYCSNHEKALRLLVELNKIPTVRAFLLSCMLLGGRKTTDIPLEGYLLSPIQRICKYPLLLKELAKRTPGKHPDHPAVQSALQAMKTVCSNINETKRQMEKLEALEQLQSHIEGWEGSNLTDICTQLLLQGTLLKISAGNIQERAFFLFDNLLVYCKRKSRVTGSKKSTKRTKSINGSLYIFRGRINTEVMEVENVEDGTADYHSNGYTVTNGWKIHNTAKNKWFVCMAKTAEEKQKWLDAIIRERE

SMILES | remaining activity at 10 µM | inhibition at 10 µM (100 nM DHPH domains, without PIP3, read-out: inhibition of constitutive Rac-GEF activity of isolated P-Rex1 DHPH domains) | inhibition at 10 µM (Rho-GEF selectivity panel, 200 nM GTPase, read-out: inhibition of P-Rex1 DHPH Rac-GEF activity) | pIC50 (liposome-based GEF assay, 200 nM prenylated EE-Rac2 as substrate, read-out: IC50 of inhibition of P-Rex1 DHPH Rac-GEF activity)
CC1CCC(C(C)C)c2nn(C(=O)/C=C\c3ccccc3)c(-c3cccc4ccccc34)c21 (centres unmarked) [#10] | 28% | – | – | –
COc1ccc(-c2[nH]nc3c2C(c2ccc(-c4ccc(Cl)cc4)o2)C(C#N)=C(N)O3)cc1 (centres unmarked) [PREX-in1, 6-amino-4-[5-(4-chlorophenyl)-2-furyl]-3-(4-methoxyphenyl)-2,4-dihydropyrano[2,3-c]pyrazole-5-carbonitrile] | 3% | 100% | > 90% | 5.35
